In ChEMBL document CHEMBL4602709 (ACS Med Chem Lett, 2020):

Columns and labels:
[1] = target: T1, Discoidin domain-containing receptor 2 (Homo sapiens) (UniProt Q16832); assay: Inhibition of DDR2 (unknown origin) assessed as residual activity at 10 uM incubated for 5 mins in presence of [gamma-33ATP] by scintillation counting based radiometry assay relative to control
T1 sequence (whole entry): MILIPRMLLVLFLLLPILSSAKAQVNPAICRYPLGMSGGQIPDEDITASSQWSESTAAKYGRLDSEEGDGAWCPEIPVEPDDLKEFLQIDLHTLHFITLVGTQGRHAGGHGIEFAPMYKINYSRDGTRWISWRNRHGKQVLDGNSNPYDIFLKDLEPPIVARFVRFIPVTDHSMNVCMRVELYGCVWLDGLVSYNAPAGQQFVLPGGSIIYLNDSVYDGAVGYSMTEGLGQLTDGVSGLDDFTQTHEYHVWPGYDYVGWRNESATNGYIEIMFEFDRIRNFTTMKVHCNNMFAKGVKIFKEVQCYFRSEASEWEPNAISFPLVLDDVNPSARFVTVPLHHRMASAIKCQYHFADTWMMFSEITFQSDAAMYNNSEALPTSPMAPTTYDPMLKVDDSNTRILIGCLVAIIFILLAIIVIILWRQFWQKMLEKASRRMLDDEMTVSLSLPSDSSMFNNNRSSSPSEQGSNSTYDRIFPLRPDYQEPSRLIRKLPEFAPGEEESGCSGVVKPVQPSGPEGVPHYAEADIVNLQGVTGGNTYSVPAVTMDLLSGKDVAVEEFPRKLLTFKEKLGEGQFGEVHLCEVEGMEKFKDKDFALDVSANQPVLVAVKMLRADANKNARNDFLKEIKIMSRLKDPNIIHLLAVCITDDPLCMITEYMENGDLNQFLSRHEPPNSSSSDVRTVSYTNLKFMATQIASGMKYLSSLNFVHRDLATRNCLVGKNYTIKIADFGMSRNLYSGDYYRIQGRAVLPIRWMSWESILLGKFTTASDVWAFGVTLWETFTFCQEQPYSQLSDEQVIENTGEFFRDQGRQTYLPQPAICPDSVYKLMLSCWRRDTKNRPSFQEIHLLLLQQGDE

[2] = target: Proto-oncogene tyrosine-protein kinase Src (Homo sapiens, UniProt P12931); assay: Inhibition of SRC (unknown origin) assessed as residual activity at 10 uM incubated for 5 mins in presence of [gamma-33ATP] by scintillation counting based radiometry assay relative to control
Sequence of Proto-oncogene tyrosine-protein kinase Src (P12931 2-536 limits assumed): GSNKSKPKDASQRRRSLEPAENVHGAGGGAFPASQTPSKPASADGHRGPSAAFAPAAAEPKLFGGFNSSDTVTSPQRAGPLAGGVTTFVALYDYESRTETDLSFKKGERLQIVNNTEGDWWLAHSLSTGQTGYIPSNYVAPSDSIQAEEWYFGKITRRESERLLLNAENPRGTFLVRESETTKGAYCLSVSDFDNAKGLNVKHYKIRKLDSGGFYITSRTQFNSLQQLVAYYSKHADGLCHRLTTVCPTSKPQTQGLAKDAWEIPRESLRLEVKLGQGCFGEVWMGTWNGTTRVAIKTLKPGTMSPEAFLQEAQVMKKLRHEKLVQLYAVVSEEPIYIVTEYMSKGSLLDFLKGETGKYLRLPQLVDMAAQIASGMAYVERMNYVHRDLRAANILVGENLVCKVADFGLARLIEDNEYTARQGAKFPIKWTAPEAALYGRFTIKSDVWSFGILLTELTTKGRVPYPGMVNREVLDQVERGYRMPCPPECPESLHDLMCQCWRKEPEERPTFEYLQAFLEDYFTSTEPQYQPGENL

[3] = target: T2, Mitogen-activated protein kinase kinase kinase kinase 3 (Homo sapiens) (UniProt Q8IVH8); assay: Inhibition of MAP4K3 (unknown origin) assessed as residual activity at 10 uM incubated for 5 mins in presence of [gamma-33ATP] by scintillation counting based radiometry assay relative to control
T2 sequence (whole entry): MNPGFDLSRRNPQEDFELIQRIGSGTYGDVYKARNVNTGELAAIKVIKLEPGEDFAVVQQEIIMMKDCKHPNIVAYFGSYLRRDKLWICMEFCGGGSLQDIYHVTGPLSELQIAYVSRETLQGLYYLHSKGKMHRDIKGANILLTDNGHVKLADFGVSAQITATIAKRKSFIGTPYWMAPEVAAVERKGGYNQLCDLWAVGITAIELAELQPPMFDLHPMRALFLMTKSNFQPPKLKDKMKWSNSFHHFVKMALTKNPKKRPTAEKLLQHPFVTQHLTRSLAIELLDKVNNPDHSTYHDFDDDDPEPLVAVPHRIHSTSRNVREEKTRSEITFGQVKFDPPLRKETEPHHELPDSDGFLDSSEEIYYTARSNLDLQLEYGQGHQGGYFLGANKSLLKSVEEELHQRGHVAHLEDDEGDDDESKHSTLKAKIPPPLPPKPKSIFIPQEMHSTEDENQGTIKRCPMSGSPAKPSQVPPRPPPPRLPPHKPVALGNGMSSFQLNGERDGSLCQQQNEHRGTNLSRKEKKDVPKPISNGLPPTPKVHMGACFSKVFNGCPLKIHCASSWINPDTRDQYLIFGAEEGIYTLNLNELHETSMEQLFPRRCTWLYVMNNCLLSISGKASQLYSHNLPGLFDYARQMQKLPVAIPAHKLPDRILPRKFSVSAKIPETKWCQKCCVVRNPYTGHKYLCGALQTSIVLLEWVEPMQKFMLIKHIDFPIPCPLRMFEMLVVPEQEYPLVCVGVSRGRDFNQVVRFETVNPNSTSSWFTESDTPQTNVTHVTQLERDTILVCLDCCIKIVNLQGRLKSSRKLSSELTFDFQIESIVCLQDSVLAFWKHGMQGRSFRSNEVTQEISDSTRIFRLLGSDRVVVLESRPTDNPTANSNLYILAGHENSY

[4] = Inhibition of VEGFR (unknown origin) assessed as residual activity incubated for 5 mins in presence of [gamma-33ATP] by scintillation counting based radiometry assay; set-up: species or system Homo sapiens
[5] = Cytotoxicity against human THLE3 assessed as reduction in cell viability incubated for 72 hrs by Cell Titer Glo 2.0 reagent based assay; conditions: THLE3 cells
[6] = target: T3, Mitogen-activated protein kinase kinase kinase kinase 3 (Homo sapiens, UniProt Q8IVH8); assay: Inhibition of MAP4K3 (unknown origin) assessed as residual activity incubated for 5 mins in presence of [gamma-33ATP] by scintillation counting based radiometry assay
T3 sequence (Q8IVH8 whole entry): T2 sequence (whole entry)

[7] = target: Tyrosine-protein kinase ABL1 (Homo sapiens, UniProt P00519); assay: Inhibition of human ABL1 assessed as residual activity using EAIYAAPFAKKK as substrate by [gamma-33P]-ATP assay
Sequence of Tyrosine-protein kinase ABL1 (P00519 whole entry): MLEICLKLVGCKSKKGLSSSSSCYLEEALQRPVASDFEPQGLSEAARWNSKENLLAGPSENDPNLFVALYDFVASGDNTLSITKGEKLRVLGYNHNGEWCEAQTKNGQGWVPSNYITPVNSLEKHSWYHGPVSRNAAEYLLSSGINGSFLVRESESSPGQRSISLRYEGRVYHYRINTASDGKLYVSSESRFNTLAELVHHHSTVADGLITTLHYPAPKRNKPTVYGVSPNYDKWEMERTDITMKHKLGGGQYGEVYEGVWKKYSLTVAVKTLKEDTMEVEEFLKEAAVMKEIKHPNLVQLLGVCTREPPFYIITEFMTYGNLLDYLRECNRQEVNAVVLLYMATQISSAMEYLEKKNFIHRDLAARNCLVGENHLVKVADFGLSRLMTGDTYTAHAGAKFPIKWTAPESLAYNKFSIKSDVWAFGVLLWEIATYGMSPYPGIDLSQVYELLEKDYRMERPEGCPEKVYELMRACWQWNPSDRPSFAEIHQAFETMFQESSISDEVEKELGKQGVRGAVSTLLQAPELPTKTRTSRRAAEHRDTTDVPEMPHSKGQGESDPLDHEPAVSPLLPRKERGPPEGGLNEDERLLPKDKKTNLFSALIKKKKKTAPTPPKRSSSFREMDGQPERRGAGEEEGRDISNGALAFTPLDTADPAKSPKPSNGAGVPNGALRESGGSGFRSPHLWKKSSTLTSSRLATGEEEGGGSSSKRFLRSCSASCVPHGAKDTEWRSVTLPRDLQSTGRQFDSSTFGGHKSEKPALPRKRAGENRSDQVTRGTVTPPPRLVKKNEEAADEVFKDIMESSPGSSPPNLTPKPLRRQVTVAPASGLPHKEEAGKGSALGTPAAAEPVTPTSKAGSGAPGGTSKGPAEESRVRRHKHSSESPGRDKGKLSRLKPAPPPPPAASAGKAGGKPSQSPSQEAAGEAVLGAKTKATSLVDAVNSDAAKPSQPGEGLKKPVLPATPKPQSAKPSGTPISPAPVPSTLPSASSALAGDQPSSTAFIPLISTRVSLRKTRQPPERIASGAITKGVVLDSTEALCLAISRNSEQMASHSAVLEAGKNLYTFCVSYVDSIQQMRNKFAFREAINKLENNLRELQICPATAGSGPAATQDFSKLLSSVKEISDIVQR

[8] = target: Tyrosine-protein kinase Lck (Homo sapiens, UniProt P06239); assay: Inhibition of LCK (unknown origin) assessed as residual activity incubated for 5 mins in presence of [gamma-33ATP] by scintillation counting based radiometry assay
Sequence of Tyrosine-protein kinase Lck (P06239 whole entry): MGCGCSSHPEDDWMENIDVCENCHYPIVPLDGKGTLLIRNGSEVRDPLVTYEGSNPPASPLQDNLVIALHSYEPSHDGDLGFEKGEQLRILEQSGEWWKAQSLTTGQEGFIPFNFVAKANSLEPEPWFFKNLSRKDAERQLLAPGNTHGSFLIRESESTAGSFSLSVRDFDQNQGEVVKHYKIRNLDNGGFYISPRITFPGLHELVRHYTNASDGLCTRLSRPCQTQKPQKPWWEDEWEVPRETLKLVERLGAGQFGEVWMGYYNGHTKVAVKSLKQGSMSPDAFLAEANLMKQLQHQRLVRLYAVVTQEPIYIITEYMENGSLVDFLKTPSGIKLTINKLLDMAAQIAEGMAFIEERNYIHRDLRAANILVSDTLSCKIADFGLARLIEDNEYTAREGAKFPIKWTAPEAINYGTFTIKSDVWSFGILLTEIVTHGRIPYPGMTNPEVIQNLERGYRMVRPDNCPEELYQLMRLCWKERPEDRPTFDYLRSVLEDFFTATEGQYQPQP

[9] = target: Voltage-gated inwardly rectifying potassium channel KCNH2 (Homo sapiens, UniProt Q12809); assay: Inhibition of human ERG incubated for 4 hrs by competitive fluorescence tracer binding based assay
Sequence of Voltage-gated inwardly rectifying potassium channel KCNH2 (Q12809 whole entry): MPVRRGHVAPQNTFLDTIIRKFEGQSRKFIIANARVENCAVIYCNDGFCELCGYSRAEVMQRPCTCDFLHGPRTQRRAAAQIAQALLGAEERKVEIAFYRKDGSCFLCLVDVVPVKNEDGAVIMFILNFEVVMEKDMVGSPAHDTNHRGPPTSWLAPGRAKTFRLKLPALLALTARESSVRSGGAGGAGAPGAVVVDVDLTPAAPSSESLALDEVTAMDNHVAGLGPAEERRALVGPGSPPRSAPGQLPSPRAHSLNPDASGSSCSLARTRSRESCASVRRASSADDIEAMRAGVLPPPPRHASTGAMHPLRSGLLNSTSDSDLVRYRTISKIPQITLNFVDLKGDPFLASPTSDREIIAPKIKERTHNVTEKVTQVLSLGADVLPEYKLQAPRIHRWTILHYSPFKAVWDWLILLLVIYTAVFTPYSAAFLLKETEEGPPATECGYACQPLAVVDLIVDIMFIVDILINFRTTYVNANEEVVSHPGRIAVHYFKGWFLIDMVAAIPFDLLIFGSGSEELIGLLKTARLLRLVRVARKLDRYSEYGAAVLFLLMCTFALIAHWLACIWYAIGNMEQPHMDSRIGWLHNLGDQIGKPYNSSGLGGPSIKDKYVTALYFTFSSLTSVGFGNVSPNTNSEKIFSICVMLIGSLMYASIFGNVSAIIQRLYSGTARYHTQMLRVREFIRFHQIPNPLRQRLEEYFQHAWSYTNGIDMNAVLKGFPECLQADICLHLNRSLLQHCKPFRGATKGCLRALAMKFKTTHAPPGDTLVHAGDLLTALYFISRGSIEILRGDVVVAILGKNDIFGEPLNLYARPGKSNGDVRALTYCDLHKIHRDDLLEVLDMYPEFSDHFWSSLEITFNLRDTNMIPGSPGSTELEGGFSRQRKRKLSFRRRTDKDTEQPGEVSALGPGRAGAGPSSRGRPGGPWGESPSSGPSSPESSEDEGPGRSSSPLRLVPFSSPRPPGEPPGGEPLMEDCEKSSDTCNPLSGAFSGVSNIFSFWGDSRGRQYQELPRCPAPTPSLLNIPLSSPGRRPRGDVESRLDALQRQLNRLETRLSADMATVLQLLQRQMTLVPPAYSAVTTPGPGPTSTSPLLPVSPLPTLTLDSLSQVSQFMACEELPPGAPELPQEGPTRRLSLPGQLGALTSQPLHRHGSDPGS

Activity [1] [%]	Activity [2] [%]	Activity [3] [%]	IC50 [4] [nM]	IC50 [6] [nM]	IC50 [7] [nM]	IC50 [8] [nM]	SMILES	CC50 at 72 h [5] [nM]	IC50 [9] [nM]
4	74	107	–	–	–	–	Cc1cn(-c2cc(NC(=O)c3ccc(C)c(Nc4nccc(-c5cccnc5)n4)c3)cc(C(F)(F)F)c2)cn1 [NILOTINIB]	–	–
14	15	14	44.8	240	8.31	26.1	Cc1ccc(C(=O)Nc2ccc(CN3Cc4cn[nH]c4C3)c(Cl)c2)cc1C#Cc1cnc2cccnn12	> 50000	12100
